Assays:
Type in all cases: in vivo
[1] = tested on: thrombin-induced retinal vascular hyperpermeability; test: Rat model of thrombin-induced retinal vascular hyperpermeability (vitreous protein concentration)
[2] = tested on: choroidal neovascularization; test: Krypton laser-induced rat choroidal neovascularization model (fluorescein fundus angiography); conditions: evaluated 7th day after photocoagulation
Description: By using a laser-induced rat choroidal neovascularization model (Invest. Ophthalmol. Vis. Sci., 40(2), 459-466 (1999)), usefulness of the compounds of the present invention was evaluated.
A rat was intramuscularly administered 1 ml/kg of a mixed solution (7:1) comprising a 5% (W/V) ketamine hydrochloride injection solution and a 2% xylazine hydrochloride injection solution to perform general anesthesia, and after a 0.5% (W/V) tropicamide-0.5% phenylephrine hydrochloride eye drop was dropped into eyes to perform mydriasis, photocoagulation was carried out by a krypton laser photocoagulation apparatus. The photocoagulation was carried out at the posterior part of eye ground, while avoiding thick retinal blood vessels, by focusing on the deep retina with eight spots per an eye in a scattered state (coagulation conditions: spot size 100 μm, output 100 mW, coagulation time 0.1 second). After the photocoagulation, the ocular fundus was photographed to confirm laser irradiated sites.
Compound A was mixed with a 1% (W/V) methyl cellulose solution (prepared by dissolving methyl cellulose in purified water) so that it became 0.4, 1.2, 4 and 12 mg/ml, and an administration solution containing Compound A was orally administered twice a day for 7 days from the surgery day including the surgery day of the photocoagulation with a dose of 2, 6, 20 and 60 mg/kg. Incidentally, to the base administered group was similarly administered a 1% (W/V) methyl cellulose solution.
At the 7th day after the photocoagulation, a rat was intramuscularly administered 1 ml/kg of a mixed solution (7:1) comprising a 5% (W/V) ketamine hydrochloride injection solution and a 2% xylazine hydrochloride injection solution to perform general anesthesia, and a 0.5% (W/V) tropicamide-0.5% phenylephrine hydrochloride eye drop was dropped into eyes to perform mydriasis, 0.1 ml of a 10% fluorescein solution was injected into a vein of penis to carry out fluorescein fundus angiography. A spot from which no leakage of fluorescence was admitted by the fluorescein fundus angiography was judged as negative (no neovascularization), and a spot from which leakage of fluorescence was admitted was judged as positive. In addition, when the photocoagulation portions from which a slight leakage of fluorescence was admitted were present two portions, it was judged as positive (neovascularization exists). Thereafter, according to Numerical formula 1, a rate of incidence of choroidal neovascularization (%) was calculated from a number of positive spot(s) to the eight spots to which the laser was irradiated, and a suppressing rate (%) of the evaluated drug was calculated in accordance with Numerical formula 2. Incidentally, a number of the samples of each administered group is 7 or 8. […]

[3] = tested on: TNFα-induced retinal vascular hyperpermeability; test: Rat model of TNFα-induced retinal vascular hyperpermeability, oral administration
Text: TNFα is a cytokine which has been reported to increase its expression in proliferative diabetic retinopathy or at the vitreous body of retinal vein occlusion (Eye 2006; 20: 1366-1369, Jpn. J. Ophthalmol. 2011; 55: 256-63), and in a streptozocin-induced diabetes model, it has been reported that it participates in onset and progress of diabetic retinopathy through permeability enhancement or histopathological alteration of retinal vessel (Mol. Vis. 2009; 15: 1418-1428). Thus, by using a rat model of TNFα-induced retinal vascular hyperpermeability, usefulness of Compound A, the diastereomer I of Compound A and the diastereomer II of Compound A were evaluated.
A rat was intramuscularly administered 1 ml/kg of a mixed solution (7:1) comprising a 5% (W/V) ketamine hydrochloride injection solution and a 2% xylazine hydrochloride injection solution to perform general anesthesia, and a 0.5% (W/V) tropicamide-0.5% phenylephrine hydrochloride eye drop was dropped into eyes to perform mydriasis. Thereafter, 5 μL of TNFα (10 μg/ml) was injected into the vitreous body by using a 32G needle so as not to damage the crystalline lens and the retina. A rat of normal group was administered PBS (phosphate buffer) in place of the TNFα.
Compound A was dissolved in a 1% (W/V) methyl cellulose solution (prepared by dissolving methyl cellulose in purified water) so that it became 2 and 20 mg/ml to prepare a Compound A solution. The Compound A solution was orally administered with a dose of 10 and 100 mg/kg at 30 minutes before, 6 and 20 hours after administration of TNFα in the vitreous body. The diastereomer I of Compound A and the diastereomer II of Compound A were also similarly prepared and administered. Incidentally, the base administered group was similarly administered a 1% (W/V) methyl cellulose solution.
In addition, RS-504393 which is a CCR2 receptor antagonist was used those purchased from Tocris Bioscience Inc., and orally administered in the same manner with a dose of 3 and 30 mg/kg.
After 24 hours from administration of TNFα in the vitreous body, the rat was euthanized by exsanguination, and then, the eyeballs of the rat were excised so as not to mix with a blood. After extraction of the eyeballs, the vitreous body was rapidly collected by making a tiny cut at around the optic papilla using a surgical scalpel. The collected vitreous body was optionally diluted by purified water, and the protein concentration was measured by the Bradford method. The protein concentration of the vitreous body thus measured was used as an index of the retinal vascular permeability. Thereafter, according to Numerical formula 4, a suppressing rate (%) of the evaluated drug against the retinal vascular hyperpermeability caused by TNFα was calculated. […]

[4] = tested on: TNFα-induced retinal vascular hyperpermeability; test: Rat model of TNFα-induced retinal vascular hyperpermeability, intravitreal administration; conditions: 100 μg/eye intravitreally immediately after intravitreal TNFα; vitreous protein at 24 h
Description: To investigate an effectiveness of Compound A by topical administration, the effect of intravitreal administration of Compound A on a rat model of TNFα-induced retinal vascular hyperpermeability was investigated. A model was prepared in the same manner as in Pharmacological test 3. Compound A was dissolved in a mixed solution of dimethylsulfoxide and PLA0020 with a ratio of 4: 1 so that it became 40 mg/ml to prepare a solution of Compound A. Immediately after intravitreal administration of TNFα, the solution of Compound A was intravitreally administered with a dose of 100 μg/eyes. Incidentally, to the base administered group, a mixed solution of dimethylsulfoxide and PLA0020 with a ratio of 4:1 was similarly administered. After 24 hours from intravitreal administration of TNFα, the rat was euthanized by exsanguination, and then, the eyeballs of the rat were excised so as not to mix with a blood. […] The collected vitreous body was optionally diluted by purified water, and the protein concentration was measured by the Bradford method. The protein concentration of the vitreous body thus measured was used as an index of the retinal vascular permeability. Thereafter, according to Numerical formula 4, a suppressing rate (%) of the evaluated drug against the retinal vascular hyperpermeability caused by TNFα was calculated. […]

[5] = 10 mg/kg intraperitoneally, vitreous protein 24 h after intravitreal thrombin

COC1COCCC1N[C@@H]1CC[C@@](C(=O)N2CCc3ncc(C(F)(F)F)cc3C2)(C(C)C)C1.O=C(O)CCC(=O)O (stereo partly drawn) [Compound A]
Retinal vascular permeability suppressing rate (%) ([1]; 6 mg/kg orally at 30 min before, 6 and 20 h after intravitreal thrombin, vitreous protein at 24 h): 15%
Suppressing rate (%) of incidence of choroidal neovascularization ([2]; 2 mg/kg orally twice a day for 7 days): 32.8%
Suppressing rate (%) of incidence of choroidal neovascularization ([2]; 6 mg/kg orally twice a day for 7 days): 39.5%
Suppressing rate (%) of incidence of choroidal neovascularization ([2]; 20 mg/kg orally twice a day for 7 days): 52.9%
Suppressing rate (%) of incidence of choroidal neovascularization ([2]; 60 mg/kg orally twice a day for 7 days): 62.7%
Retinal vascular permeability suppressing rate (%) ([3]; 10 mg/kg orally at 30 min before, 6 and 20 h after intravitreal TNFα, vitreous protein at 24 h): 63%
Retinal vascular permeability suppressing rate (%) ([3]; 100 mg/kg orally at 30 min before, 6 and 20 h after intravitreal TNFα, vitreous protein at 24 h): 88%
Retinal vascular permeability suppressing rate (%) [4]: 61%

C[N+](C)(Cc1ccc(NC(=O)c2ccc(Cl)c(Cl)c2)cc1)C1CCOCC1.[Cl-] [Compound B, N-[4-(3,4-dichlorobenzamido)benzyl]-N,N-dimethyl-N-(tetrahydropyran-4-yl)ammonium chloride]
Retinal vascular permeability suppressing rate (%) [1, 5]: −13%

O=C(/C=C/c1cc(F)cc(F)c1)N1CCC([C@@H](CO)N2CCC(c3c[nH]c4ncccc34)CC2)CC1 [Compound C, 2(S)-[1-[3-(3,5-difluorophenyl)-2(E)-propenoyl]piperidin-4-yl]-2-[4-(1H-pyrrolo[2,3-b]pyridin-3-yl)piperidin-1-yl]ethanol]
Retinal vascular permeability suppressing rate (%) [1, 5]: −1%

Cc1ccc2c(c1)C1(CCN(CCc3nc(-c4ccccc4)oc3C)CC1)OC(=O)N2 [RS-504393, reference compound]
Retinal vascular permeability suppressing rate (%) ([3]; 3 mg/kg orally, vitreous protein 24 h after intravitreal TNFα): 18%
Retinal vascular permeability suppressing rate (%) ([3]; 30 mg/kg orally, vitreous protein 24 h after intravitreal TNFα): −13%
